Test results as given in US20100216854A1, “1,3 AND 1,3,5 SUBSTITUTED IMIDAZOLES AS […]” (Eldrug S.A., priority 2007, published 2010).
Values joined by “and” are separate entries in the source; they are usually repeats but may differ in a detail not shown here. Identical values can stand only once. Marks after values point to notes of the source that are not given here.

Experiments:
α2-AR = assay: Testing α2-agonist properties: BP response to norepinephrine bolus before and after compound in mice; format: in vivo, Swiss Webster mice; details: for suppression of the hypertensive effect of NE: NE bolus 30 minutes after injection of compound, higher dose (300) for E-P, 100 for H-P, H-Px and UK 14304; for BP after compound (100 μg/kg): iv 100 μg/kg; for BP after compound (300 μg/kg): iv 300 μg/kg
Description: Swiss Webster mice were anesthetized with 50 mg/kg pentobarbital and two lines were inserted, one in right iliac artery and the other in right iliac vein. Next morning the arterial line was connected to a blood pressure transducer and the mean BP was recorded with a Power lab/800 data acquisition system. The venous line was used for drug infusion.

[1] = molecular target: T1, Angiotensin II (AII) receptor (Oryctolagus cuniculus, UniProt P34976); assay: Hypotensive effect as ARBs in anesthetized rabbits made hypertensive by AII infusion; format: in vivo, New Zealand White rabbits; details: AII infusion 1 μg/min; for Mean BP after 1st bolus (300 ng/kg) / Mean BP after 1st bolus (150 ng/kg): IV bolus; for Mean BP after 1st bolus (300 ng/kg) / Mean BP after 2nd bolus (600 ng/kg) / Mean BP after 1st bolus (150 ng/kg) / Mean BP after 2nd bolus (300 ng/kg): mean ± S.D.; for Mean BP after 2nd bolus (600 ng/kg): second IV bolus 15 min after 300 ng/kg; for Mean BP after 2nd bolus (300 ng/kg): second IV bolus 15 min after 150 ng/kg
T1 construct: evaluated in the anesthetized rabbit preparation made hypertensive by intravenous infusion of AII; from tissue; host or cells: whole living New Zealand White rabbit (in vivo blood pressure)
T1 sequence (P34976 1-359): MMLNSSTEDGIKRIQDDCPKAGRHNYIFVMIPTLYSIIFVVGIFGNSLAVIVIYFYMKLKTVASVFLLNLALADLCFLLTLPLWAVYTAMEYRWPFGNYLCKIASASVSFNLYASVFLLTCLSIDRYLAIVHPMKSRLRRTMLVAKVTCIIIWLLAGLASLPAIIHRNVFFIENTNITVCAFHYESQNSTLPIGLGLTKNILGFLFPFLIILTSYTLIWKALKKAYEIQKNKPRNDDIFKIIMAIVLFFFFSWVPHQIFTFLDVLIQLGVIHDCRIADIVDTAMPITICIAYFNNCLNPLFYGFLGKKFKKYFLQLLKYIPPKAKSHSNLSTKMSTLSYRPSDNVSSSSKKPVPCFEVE
Description: The hypotensive effect of these compounds as ARBs was evaluated in the anesthetized rabbit preparation made hypertensive by intravenous infusion of AII. In brief, adult normotensive male New Zealand White rabbits weighing between 2.5 and 3.5 kg were anesthetized by pentobarbitone (30 mg/kg), intubated and mechanically ventilated with 100% oxygen using a respirator for small animals (MD Industries, Mobile, Ala., USA). The tidal volume was 15 ml and the rate was adjusted to keep blood gases within normal range. Two polyethylene catheters were inserted, one in the carotid artery for continuous blood pressure monitoring via a transducer attached to a multichannel recorder (Nihon-Kohden, Model 6000, Japan) and the other one in the jugular vein for the administrations of solution made by diluting angiotensin II (ANGII) (Hypertension, CIBA) in 5% dextrose at final concentration of 5 μg/ml. Based on previous testing with this rabbit preparation submaximal angiotensin II-dependent hypertension was induced by infusing angiotensin via a syringe pump (Harvard Apparatus Pump 22, Harvard Apparatus, Natick, Mass., USA) at a constant rate of 0.2 ml/min (1 μg/min). Five minutes after the establishment of hypertension, two cumulative IV boluses of each compound were given via an ear vein 15 minutes apart. After the second bolus mean blood pressure was recorded for 30 minutes and the experiment was terminated. […]
Compounds E-P, H—P, H-Px, were also tested for the AngII receptor blocker properties, by testing their ability to block the hypertensive effect of AngII, using adult normotensive male New Zealand white rabbits. […] Values represent the mean blood pressure and are given as mean±S.D.

[2] = Effect on mean BP in anesthetized normotensive rabbits (agonistic effect); format: in vivo; details: cumulative IV injections of 300-900 ng/kg
rat uterus = rat uterus assay; cited from earlier work
[3] = anesthetized rabbits; cited from earlier work
[4] = group mean, after 100 μg/kg compound, second NE bolus 30 min after compound
[5] = group mean, BP recorded after injection
[6] = individual mice, 100 μg/kg compound
[7] = individual mice, after 100 μg/kg compound

N=C(N)NCCc1cncn1Cc1ccccc1-c1nnn[nH]1 [E-P]
suppression of the hypertensive effect of NE (α2-AR): 45% | Δ2 = BP changes between second bolus of Norepinephrine and the new baseline BP after injection of compound (α2-AR; group mean, 100 μg/kg compound): 23.0 mmHg | Δ2 = BP changes between second bolus of Norepinephrine and the new baseline BP after injection of compound (α2-AR; group mean, 300 μg/kg compound): 12.3 mmHg | BP after second bolus NE (0.12 μg/kg) (α2-AR; [4]): 153.5 mmHg | BP after second bolus NE (0.12 μg/kg) (α2-AR; group mean, after 300 μg/kg compound): 124.0 mmHg | BP after compound (100 μg/kg) (α2-AR; [5]): 130.5 mmHg | BP after compound (300 μg/kg) (α2-AR; group mean): 111.7 mmHg | Δ2 = BP changes between second bolus of Norepinephrine and the new baseline BP after injection of compound (α2-AR; [6]): 32.0 mmHg and 14.0 mmHg | Δ2 = BP changes between second bolus of Norepinephrine and the new baseline BP after injection of compound (α2-AR; individual mice, 300 μg/kg compound): 8.0 mmHg and 13.0 mmHg and 16.0 mmHg | BP after second bolus NE (0.12 μg/kg) (α2-AR; [7]): 158.0 mmHg and 149.0 mmHg | BP after second bolus NE (0.12 μg/kg) (α2-AR; individual mice, after 300 μg/kg compound): 128.0 mmHg and 120.0 mmHg and 124.0 mmHg | BP after compound (100 μg/kg) (α2-AR; individual mice): 126.0 mmHg and 135.0 mmHg | BP after compound (300 μg/kg) (α2-AR; individual mice): 120.0 mmHg and 107.0 mmHg and 108.0 mmHg | dose required to suppress NE effect (α2-AR; mice): 0.3 mg/kg | Mean BP after 1st bolus (300 ng/kg) [1]: 149 ± 7 mmHg | Mean BP after 2nd bolus (600 ng/kg) [1]: 140 ± 3 mmHg | Cumulative % drop in mean BP after the 2nd bolus ([1]; boluses 300 then 600 ng/kg): −15 ± 4% | effect on mean BP [2]: did not significantly affect mean BP

Brc1c(NC2=NCCN2)ccc2nccnc12 [UK 14304, reference compound]
suppression of the hypertensive effect of NE (α2-AR): 48% | Δ2 = BP changes between second bolus of Norepinephrine and the new baseline BP after injection of compound (α2-AR; group mean, 100 μg/kg compound): 15.8 mmHg | BP after second bolus NE (0.12 μg/kg) (α2-AR; [4]): 125.5 mmHg | BP after compound (100 μg/kg) (α2-AR; [5]): 109.8 mmHg | Δ2 = BP changes between second bolus of Norepinephrine and the new baseline BP after injection of compound (α2-AR; individual mice, 100 μg/kg compound, listed as UK): 20.0 mmHg and 12.0 mmHg and 7.0 mmHg and 24.0 mmHg | BP after second bolus NE (0.12 μg/kg) (α2-AR; individual mice, after 100 μg/kg compound, listed as UK): 125.0 mmHg and 123.0 mmHg and 115.0 mmHg and 139.0 mmHg | BP after compound (100 μg/kg) (α2-AR; individual mice, listed as UK): 105.0 mmHg and 111.0 mmHg and 108.0 mmHg and 115.0 mmHg | decrease in BP (α2-AR; mice, 100 Ilg/kg, control α2-agonist): 15 mmHg

CCOc1nc2cccc(C(=O)O)c2n1Cc1ccc(-c2ccccc2-c2nnn[nH]2)cc1 [Candesartan]
Cumulative % drop in mean BP after the 2nd bolus ([1]; boluses 150 then 300 ng/kg): −41 ± 3%

NCCc1cncn1Cc1ccccc1-c1nnn[nH]1 [H-Px]
suppression of the hypertensive effect of NE (α2-AR): 42% | Δ2 = BP changes between second bolus of Norepinephrine and the new baseline BP after injection of compound (α2-AR; group mean, 100 μg/kg compound): 12.0 mmHg | BP after second bolus NE (0.12 μg/kg) (α2-AR; [4]): 128.3 mmHg | BP after compound (100 μg/kg) (α2-AR; [5]): 125.3 mmHg | Δ2 = BP changes between second bolus of Norepinephrine and the new baseline BP after injection of compound (α2-AR; [6]): 15* mmHg and 11.0 mmHg and 13.0 mmHg | BP after second bolus NE (0.12 μg/kg) (α2-AR; [7]): 114.0 mmHg and 136.0 mmHg and 135.0 mmHg | BP after compound (100 μg/kg) (α2-AR; individual mice): 129.0 mmHg and 125.0 mmHg and 122.0 mmHg | dose required to suppress NE effect (α2-AR; mice): 0.1 mg/kg | Mean BP after 1st bolus (300 ng/kg) [1]: 148 ± 23 mmHg | Mean BP after 2nd bolus (600 ng/kg) [1]: 131 ± 15 mmHg | Cumulative % drop in mean BP after the 2nd bolus ([1]; boluses 300 then 600 ng/kg): −24 ± 4% | effect on mean BP [2]: did not significantly affect mean BP

[Sar^1, Lys^3, Glu^5]ANG II
agonist activity (rat uterus): possesses agonist activity | agonist activity [3]: possesses agonist activity

CCCCC1=NC2(CCCC2)C(=O)N1Cc1ccc(-c2ccccc2-c2nnn[nH]2)cc1 [Irbesartan]
Mean BP after 1st bolus (150 ng/kg) [1]: 141 ± 10 mmHg | Mean BP after 2nd bolus (300 ng/kg) [1]: 133 ± 11 mmHg | Cumulative % drop in mean BP after the 2nd bolus ([1]; boluses 150 then 300 ng/kg): −24 ± 7%

CCCCc1nc(Cl)c(CO)n1Cc1ccc(-c2ccccc2-c2nn[nH]n2)cc1 [Losartan]
Mean BP after 1st bolus (150 ng/kg) [1]: 148 ± 6 mmHg | Mean BP after 2nd bolus (300 ng/kg) [1]: 136 ± 3 mmHg | Cumulative % drop in mean BP after the 2nd bolus ([1]; boluses 150 then 300 ng/kg): −22 ± 5%
